Legend:
[1] = test system: DDT_13 (DNA, aptamer) TCCAGCACTCCACGCATAACGAATTGTGCTCAATGCGCCCCTGCAGTGAATGTGGAATTTGTTATGCGTGCGACGGTGAA; assay: AuNPs colorimetric assay; settings: room temperature
[2] = test system: DDT_13 (DNA, aptamer) TCCAGCACTCCACGCATAACGAATTGTGCTCAATGCGCCCCTGCAGTGAATGTGGAATTTGTTATGCGTGCGACGGTGAA; assay: SYBR Green I fluorescence assay; settings: 137 mM NaCl, 2.5 mM KCl, 0.5 mM MgCl2, 1 mM CaCl2; phosphate binding buffer pH 7.2, room temperature; interferent prepared at 5 μM

| binding ([1]; interferent prepared at 7.4 μM) | binding ([1]; interferent prepared at 16 μM) | binding [2] | Structure (SMILES) |
| --- | --- | --- | --- |
| no | – | – | CC(C)(c1cc(Br)c(O)c(Br)c1)c1cc(Br)c(O)c(Br)c1 |
| – | no | – | CCOC(=O)C(C)=O |
| – | no | – | O=C(O)C(F)(F)C(F)(F)C(F)(F)C(F)(F)C(F)(F)C(F)(F)C(F)(F)F |
| – | no | no | O=C(O)C(c1ccc(Cl)cc1)c1ccc(Cl)cc1 |
| – | no | no | O=C(O)CNCP(=O)(O)O |

From paper PMC7139375 (2020)
